In brackets after ≈: the same amount, converted by molar mass. Read-outs that look alike come from different tables or passages of the source. Marks after values point to notes of the source that are not given here.
Assays:
[1] = tested on: E. faecium VRE (ATCC 51559); experiment: MIC susceptibility testing; assay type: cell-based, Enterococcus faecium
Summary of the method: (§1)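 CLSI broth microdilution with two-fold compound dilutions, in triplicate; cells added in medium at 1×10^6 CFUs/mL, DMSO ≤0.5%. Media: MHB for S. aureus, CA-MHB for E. coli and E. faecium, CA-MHB plus 3% laked horse blood for S. pyogenes (5% CO2).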

S. aureus (ATCC 29213) [2] = experiment: Macromolecular synthesis assays (radiolabeled precursor incorporation); assay type: cell-based, Staphylococcus aureus; details: 30 minute incubations
Description: Macromolecular synthesis assays: Methods for measuring uptake of radiolabeled precursors by S. aureus (ATCC strain 29213) were adapted from previous publications. For these assays, bacteria were grown in defined media (DM): RPMI-1640 pH 7.3±0.1 without phenol red or L-glutamine (Lonza, Basel, Switzerland) supplemented with 4 mM L-glutamine (Lonza, Basel, Switzerland), 10 mM HEPES (Lonza, Basel, Switzerland), and 1% (w/v) D-glucose (Sigma Aldrich, St. Louis, Mo.). Fresh overnight cultures grown in DM at 37° C. were diluted 1:50 in pre-warmed DM and grown at 37° C. with shaking (150 rpm) until reaching an OD600 of 0.420 correlating to ˜1*10^9 CFUs/mL in mid-log phase. Each compound was assayed in quadruplicate with an 11-point three-fold serial dilution per radioisotope. A pre-warmed 96-well V-bottom plate (Corning 3894; Corning, Corning, Mass.) containing 25 μL of 4× final concentration of test compound was inoculated with 65 μL of mid-log phase bacteria (OD600 of 0.420). Both positive and negative control wells received 25 μL untreated DM and 65 μL of inoculum at the same time. After one minute, 10 μL of radiolabeled precursor (10× final concentration in DM) was added to samples and positive control wells. Final isotope concentrations for assay of [3H]-lysine (protein), [3H]-thymidine (DNA), and [3H]-uridine (RNA) were 10 μCi/mL, 2 μCi/mL, and 2 μCi/mL respectively. […] After termination, 10 μL of 10× radiolabeled precursor was added to negative control wells. The negative control consisted of adding radiolabeled precursors after termination of the bacterial incubation in order to represent background measurement of the isotope. Plates were sealed with plate tape (Thermo Fischer Scientific, Waltham, Mass.) and shaken at 250 rpm for one hour at room temperature. Aliquots of 125 μL were transferred from the 96-well V-bottom plates to 96-well filter plates (Merck Millipore, Billerica, Mass.). To bind macromolecules, the samples were passed through the filter membrane (0.45 μM hydrophilic Durapore PVDF membrane) with a vacuum manifold, then the filter was washed with 4×200 μL 10% TCA and 1×150 μL of 95% ethanol, and dried overnight in vacuum at room temperature. 25 μL Ultima Gold scintillation fluid (Perkin Elmer, Waltham, Mass.) was added to each well and DPM was quantified using a MicroBeta^2-2450 (Perkin Elmer, Waltham, Mass.) scintillation counter. The percent incorporation was determined by subtracting each well by the average negative background and dividing by the average positive incorporation×100. Error bars represent SEM between replicates. The assay was run twice with similar results.

[3] = tested on: S. aureus VISA (ATCC 700699); experiment: MIC susceptibility testing; assay type: cell-based
Summary of the method: as §1

E. coli (ATCC 25922) = experiment: MIC susceptibility testing; assay type: cell-based; details: Escherichia coli, ATCC25922
Summary of the method: as §1

E. faecium (ATCC 19434) = experiment: MIC susceptibility testing; assay type: cell-based
Summary of the method: as §1

S. pyogenes (ATCC 19615) = experiment: MIC susceptibility testing; assay type: cell-based; details: Streptococcus pyogenes, ATCC19615, 18 h, read-out: S. pyogenes (ATCC 19615) MIC
[4] = target: recombinant S. aureus MetRS enzyme (Staphylococcus aureus, UniProt A0A0H2XID2); experiment: Inhibition of SaMetRS, ATP depletion assay; assay type: biochemical
Summary of the method: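 IC50 values come from sigmoidal fits of percent inhibition, based on ATP left after 120 min as measured by Kinase-Glo. Substrates were 20 μM L-methionine and 150 nM ATP, added after compounds sat 15 min at room temperature with 25 nM His-tagged SaMetRS, bulk E. coli tRNA, pH 7.9 HEPES buffer and 2% DMSO.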

S. aureus = experiment: Serum shift assays (MIC with and without 50% human serum); assay type: cell-based, Staphylococcus aureus; details: for MIC: Staphylococcus aureus
Description: Serum shift assays: To assess the role of protein binding on compound susceptibility, MIC determinations were performed in triplicate in the presence and absence of 50% human serum. Serial threefold dilutions of 2× compound were generated in MHB and aliquoted onto 96 well plates with a DMSO limit of 0.5%. Bacteria were adjusted to 1*10^8 CFUs/mL in MHB, then further diluted 1:100 in MHB and 100% heat deactivated filter sterilized pooled human serum. Fifty microliters were added to each well of the corresponding plates, and the plates were incubated at 37° C. for ˜20 h. The lowest concentration causing ≥90% growth inhibition was recorded as the MIC.

[5] = Cytotoxicity testing on mammalian cells (AlamarBlue, 48 hours); assay type: cell-based; details: human
Description: Cytotoxicity testing on mammalian cells: Compounds were assayed for cytotoxicity against CRL-8155 (human lymphoblasts) and HepG2 cells (human hepatocellular carcinoma). Cells were exposed to serial dilutions of compounds for 48 hours and toxicity was quantified using AlamarBlue (ThermoFisher Scientific, Waltham, Mass.). Assays were performed in quadruplicate and EC50 values were calculated with non-linear regression methods using software by the Collaborative Drug Database (Burlingame, Calif. www.collaborativedrug.com)

[6] = tested on: S. pneumoniae (ATCC 49619); experiment: MIC susceptibility testing; assay type: cell-based; details: Streptococcus pneumoniae, ATCC49619, 18 h, read-out: S. pneumoniae (ATCC 49619) MIC
E. faecalis (ATCC 29212) = experiment: MIC susceptibility testing; assay type: cell-based
[7] = tested on: P. aeruginosa (ATCC 27853); experiment: MIC susceptibility testing; assay type: cell-based; details: Pseudomonas aeruginosa, ATCC27853
[8] = tested on: S. aureus MRSA (ATCC 43300); experiment: MIC susceptibility testing; assay type: cell-based
Summary of the method: as §1

[9] = tested on: S. aureus MSSA (ATCC 29213); experiment: MIC susceptibility testing; assay type: cell-based, Staphylococcus aureus
[10] = Data from Drugbank; cited from earlier work
S. aureus (ATCC 29213) [11] = experiment: MBC determinations (with MIC); assay type: cell-based; details: Staphylococcus aureus, ATCC29213
Description: Maximum DMSO concentrations were 0.5%. […] Each experiment's inoculum was serially diluted and plated on TSA to count competent cells. Cultures were incubated at 37° C. for at least 20 h and plated on TSA for CFU determination.
MIC/MBC: Measurements of minimum bactericidal concentrations (MBCs) were done with the S. aureus strain ATCC 29213 (Table 5).

[12] = tested on: S. epidermidis (ATCC 12228); experiment: MIC susceptibility testing; assay type: cell-based; details: Staphylococcus epidermidis, ATCC12228, read-out: S. epidermidis (ATCC 12228) MIC
[13] = tested on: S. epidermidis (ATCC 49134); experiment: MIC susceptibility testing; assay type: cell-based; details: Staphylococcus epidermidis, ATCC49134, read-out: S. epidermidis (ATCC 49134) MIC
[14] = tested on: S. aureus MSSA (ATCC 19636); experiment: MIC susceptibility testing; assay type: cell-based; details: Staphylococcus aureus, read-out: S. aureus MSSA (ATCC 19636) MIC
Summary of the method: as §1

[15] = tested on: S. aureus MRSA (ATCC 33591); experiment: MIC susceptibility testing; assay type: cell-based, Staphylococcus aureus; details: Staphylococcus aureus, read-out: S. aureus MRSA (ATCC 33591) MIC
Summary of the method: as §1

[16] = value printed with (49), probably a literature reference; cited from earlier work
[17] = Enterococcus faecium; read-out: E. faecium VRE (ATCC 51559) MIC
[18] = read-out: Avg MIC ± SEM (+50% serum), 50% human serum
[19] = read-out: Avg MIC ± SEM (no serum), no serum
[20] = CRL-8155 cells (human lymphoblasts), read-out: Mamm. cells (CRL8155) CC50
[21] = HepG2 cells (human hepatocellular carcinoma), read-out: Mamm. cells (HepG2) CC50
[22] = medium with 3% laked horse blood
[23] = recombinant enzyme, lower limit of detection 0.025 μM, read-out: MetRS S. aureus (enzyme) IC50

Sequence of recombinant S. aureus MetRS enzyme (A0A0H2XID2 2-657): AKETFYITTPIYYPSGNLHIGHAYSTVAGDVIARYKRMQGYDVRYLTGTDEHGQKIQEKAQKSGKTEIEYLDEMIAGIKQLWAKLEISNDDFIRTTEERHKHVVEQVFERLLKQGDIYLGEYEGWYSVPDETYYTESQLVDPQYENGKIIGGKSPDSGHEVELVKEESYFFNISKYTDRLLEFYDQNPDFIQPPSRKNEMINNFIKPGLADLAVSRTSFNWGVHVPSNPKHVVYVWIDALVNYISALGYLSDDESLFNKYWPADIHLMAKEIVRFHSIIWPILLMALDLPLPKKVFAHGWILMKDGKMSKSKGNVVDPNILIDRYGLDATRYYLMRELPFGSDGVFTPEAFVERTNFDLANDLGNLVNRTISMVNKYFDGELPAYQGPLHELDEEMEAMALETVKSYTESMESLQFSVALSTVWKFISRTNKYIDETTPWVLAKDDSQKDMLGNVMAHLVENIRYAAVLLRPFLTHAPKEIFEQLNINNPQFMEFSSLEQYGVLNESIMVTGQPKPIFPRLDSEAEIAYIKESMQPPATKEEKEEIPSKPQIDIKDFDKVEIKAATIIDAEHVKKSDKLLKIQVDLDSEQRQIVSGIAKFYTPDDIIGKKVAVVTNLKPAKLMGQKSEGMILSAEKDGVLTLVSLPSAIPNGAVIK

In the case of `O=C(O)c1cn(C2CC2)c2cc(N3CCNCC3)c(F)cc2c1=O` [CIP, ciprofloxacin], the MIC [1, 17] is reported as 5 mg/L (≈ 15.1 µM), the “incorporation of 3H-thymidine (DNA synthesis)” value (S. aureus (ATCC 29213) [2]) is reported as “selective inhibition of DNA synthesis” and the MIC ([3]; Staphylococcus aureus; read-out: S. aureus VISA (ATCC 700699) MIC) is reported as > 10 mg/L. It also gave an MIC (E. coli (ATCC 25922)) of 0.039 mg/L (≈ 0.118 µM), an MIC (E. faecium (ATCC 19434); Enterococcus faecium, ATCC19434; read-out: E. faecium (ATCC 19434) MIC) of 5 mg/L (≈ 15.1 µM) and an MIC (S. pyogenes (ATCC 19615)) of 0.625 mg/L (≈ 1.89 µM). The IC50 [4] was > 10 µM, the MIC (S. aureus; [18]) was 0.152 ± 0.01 mg/L and the MIC (S. aureus; [19]) was 0.145 ± 0.001 mg/L.
With `Clc1cc(Cl)cc(CNCCCNc2nc3ncccc3[nH]2)c1` [Compound 1575, N1-(3,5-dichlorobenzyl)—N3-(1H-imidazo[4,5-b]pyridin-2-yl)propane-1,3-diamine] the CC50 at 48 h [5, 20] was 12.2 mg/L (≈ 34.8 µM), the CC50 at 48 h [5, 21] was > 17.5 mg/L and the MIC [1, 17] was 0.625 mg/L (≈ 1.78 µM). For the same compound, the MIC [6, 22] was > 10 mg/L, the MIC (E. faecalis (ATCC 29212); Enterococcus faecalis, ATCC29212; read-out: E. faecalis (ATCC 29212) MIC) was 1.25 mg/L (≈ 3.57 µM) and the MIC (E. coli (ATCC 25922)) was > 10 mg/L. The MIC [7] was > 10 mg/L, the MIC ([8]; Staphylococcus aureus; read-out: S. aureus MRSA (ATCC 43300) MIC) was > 10 mg/L and the MIC (S. pyogenes (ATCC 19615); [22]) was > 10 mg/L. For the same compound, the IC50 [4, 23] was < 0.025 µM and the MIC ([9]; Staphylococcus aureus, 18 h; read-out: S. aureus MSSA (ATCC 29213) MIC) was 10 mg/L (≈ 28.6 µM).
With `CN[C@H](CC(C)C)C(=O)N[C@H]1C(=O)N[C@@H](CC(N)=O)C(=O)N[C@H]2C(=O)N[C@H]3C(=O)N[C@H](C(=O)N[C@H](C(=O)O)c4cc(O)cc(O)c4-c4cc3ccc4O)[C@H](O)c3ccc(c(Cl)c3)Oc3cc2cc(c3O[C@@H]2O[C@H](CO)[C@@H](O)[C@H](O)[C@H]2O[C@H]2C[C@](C)(N)[C@H](O)[C@H](C)O2)Oc2ccc(cc2Cl)[C@H]1O` [VAN, vancomycin] the CC50 at 48 h [5, 20] was > 145 mg/L, the CC50 at 48 h [5, 21] was > 145 mg/L and the MIC ([1]; Enterococcus faecium, read-out: E. faecium VRE (ATCC 51559) MIC) was > 10 mg/L. For the same compound, the “% binding to human plasma” value [10] was 55* %, the MBC (S. aureus (ATCC 29213) [11]) was 5 mg/L (≈ 3.45 µM) and the MIC (S. aureus (ATCC 29213) [11]) was 1.25 mg/L (≈ 0.863 µM). For the same compound, the MIC [6] was 0.313 mg/L (≈ 0.216 µM), the MIC ([3]; Staphylococcus aureus, read-out: S. aureus VISA (ATCC 700699) MIC) was 10 mg/L (≈ 6.9 µM) and the MIC (E. faecalis (ATCC 29212); Enterococcus faecalis, ATCC29212, read-out: E. faecalis (ATCC 29212) MIC) was 5 mg/L (≈ 3.45 µM). The MIC [12] was 2.5 mg/L (≈ 1.73 µM), the MIC (E. faecium (ATCC 19434); Enterococcus faecium, ATCC19434, read-out: E. faecium (ATCC 19434) MIC) was 0.625 mg/L (≈ 0.431 µM) and the MIC [13] was 2.5 mg/L (≈ 1.73 µM). The MIC ([8]; Staphylococcus aureus, read-out: S. aureus MRSA (ATCC 43300) MIC) was 1.25 mg/L (≈ 0.863 µM), the MIC (S. pyogenes (ATCC 19615)) was 0.625 mg/L (≈ 0.431 µM) and the MIC [14] was 1.25 mg/L (≈ 0.863 µM). The IC50 [4, 23] was > 10 µM, the MIC [15] was 1.25 mg/L (≈ 0.863 µM) and the MIC ([9]; Staphylococcus aureus, 18 h, read-out: S. aureus MSSA (ATCC 29213) MIC) was 1.25 mg/L (≈ 0.863 µM). The “% binding to mouse plasma” value [16] was 25 (49) %, the “Avg MIC ± SEM (+50% serum)” value (S. aureus; 50% human serum) was 1.213 ± 0.12 mg/L and the MIC (S. aureus; [18]) was 1.21 mg/L. It also gave an MIC (S. aureus; [19]) of 0.714 ± 0.05 mg/L.

Source: patent publication US11584744B2 (UNIVERSITY OF WASHINGTON, priority 2017, dated 2023)
